In patent US20160113931A1, “Method of treating and/or preventing neurodegenerative diseases” (University of Macau, priority 2014, published 2016):
“Also recorded” adds a separate entry of the source.

Assays:
SH-SY5Y cells = experiment: MPP+-induced LDH leakage in SH-SY5Y cells (LDH assay); assay type: cell-based, human; settings: 2 h pre-treatment, MPP+ 36 h, MPP+ alone 209%, normalized to control
Protocol: Cells were pre-treated with BHDPC (3, 10 and 30 μM) for 2 h and then incubated with or without 1 mM MPP^+ for further 24 h. Cell viability was measured by the MTT assay.
Cell cytotoxicity was also determined by measuring the activity of LDH released into the incubation medium when cellular membranes were damaged. Cells were seeded at 96-well plates (5×10^3 cells/well). After treatment, the released LDH activity in the medium was measured according to the instructions of the Cytotoxicity Detection Kit (Roche Applied Science, Mannheim, Germany). Absorbance at 490 nm was measured using SpectraMax M5. All values of LDH released were normalized to the control group.
The protective activity of BHDPC was also confirmed by the lactate dehydrogenase (LDH) assay. SH-SY5Y cells were treated with BHDPC for 2 h before exposed to MPP^+ for 36 h.

[1] = tested on: oligodendroglial progenitor cells (OPCs); experiment: LPS-induced OPC death (MTT assay); assay type: cell-based, rat; settings: 30 μM BHDPC 2 h, LPS 24 h
Protocol: OPCs were incubated with 30 μM BHDPC or 0.1% DMSO (vehicle control) for 2 h followed by the addition or not of 200 μM H2O2 for a further 6 h (FIG. 11A) or LPS (FIG. 11B) for 24 h.
The percentage of surviving cells was estimated by determining the activity of mitochondrial dehydrogenases with 3(4,5-dimethylthiazol-2-yl)-2,5-diphenyltetrazolium bromide (MTT) assay. After drug treatment, cells were incubated at 37° C. for 4 h in 0.5 mg/mL MTT solution. The medium was then removed, and 100 μL of DMSO was added to each well to dissolve the violet formazan crystals. The absorbance of the samples was measured at a wavelength of 570 nm with 655 nm as a reference wavelength. All values were normalized to the control groups.
Purified OPC cultures were prepared as described. In brief, primary rat mixed glial cell cultures were isolated from whole brains of postnatal day (P) 2 rats, dissociated into single cells, and cultured into poly-D-lysine (PDL) coated T75 tissue culture flasks. Plating medium consisted of Dulbecco's modified Eagle's medium (DMEM, Invitrogen, Carlsbad, Calif.) supplemented with 10% fetal bovine serum (FBS; Invitrogen, Carlsbad, Calif.), […]. Tissue cultures were maintained at 37° C. in a humidified 5% CO2 incubator, and medium was exchanged every 3 days. […]

caspase 3 = experiment: Caspase 3 activity assay in SH-SY5Y cells; assay type: cell-based, human
Protocol: After pre-treatment with 30 μM BHDPC or 0.1% DMSO (vehicle control) for 2 h, SH-SY5Y cells were incubated with or without 2 mM MPP^+ for another 36 h. (FIG. 6A) Δψm was determined by the JC-1 assay.
After treatment, the activity of caspase 3 was measured using the commercially available EnzChek Caspase-3 Assay Kit (Invitrogen, USA) according to the manufacturer's protocol. Briefly, SH-SY5Y cells were lysed in lysis buffer and centrifuged at 12,500×g for 5 min. 15 μL of cell lysate was incubated with 50 μL of 2× substrate working solution at room temperature for 30 min in 96-well plates. The fluorescence intensity was then determined by a SpectraMax M5 microplate reader at an excitation wavelength of 490 nm and emission at 520 nm. The fluorescence intensity of each sample was normalized to the protein concentration of sample. All values of % caspase 3 activities were normalized to the control group.
Caspase 3 activation plays a key role in the execution-phase of the apoptosis.

Question: How did the “MPP+-induced LDH leakage” value (SH-SY5Y cells; 3 μM) turn out when `COc1cc(C2C(C(=O)OCc3ccccc3)=C(C)Nc3nnnn32)ccc1O` (stereo not drawn) [BHDPC, benzyl 7-(4-hydroxy-3-methoxyphenyl)-5-methyl-4,7-dihydrotetrazolo[1,5-a]pyrimidine-6-carboxylate] was run?
Answer: 200%

Question: And the “MPP+-induced LDH leakage” value (SH-SY5Y cells; 10 μM)?
Answer: 184%

Question: And the “MPP+-induced LDH leakage” value (SH-SY5Y cells; 30 μM)?
Answer: 170%

Question: And the LPS-induced cell death [1]?
Answer: reduced LPS-induced cell death

Question: And the “MPP+-induced caspase 3 activation” value (caspase 3; 30 μM pre-treatment, 2 mM MPP+ 36 h)?
Answer: significantly reduced; also recorded: attenuated

Question: And the “caspase 3 activity” value (caspase 3; BHDPC alone, without MPP+)?
Answer: did not affect caspase 3 activity
